# Measurements: BindingDB's records for doi:10.1021/ml500238q (University of Bonn, 2014)
# Molecular target: Cathepsin K (Homo sapiens) (UniProt P43235)
# Assay: Inhibition of human cathepsin K using Z-Leu-Arg-AMC fluorogenic substrate incubated for 60 mins
row,Ki [pM],Structure (SMILES)
1,11,CC(C)(C)OC(=O)NN(C#N)CC(=O)N1CCOCC1
2,1.43,CC(C)(C)OC(=O)NN(C#N)CC(=O)N(Cc1ccccc1)Cc1ccccc1
3,4.2,CN(Cc1ccccc1)C(=O)CN(C#N)NC(=O)OC(C)(C)C
4,31000,CN(C(=O)OC(C)(C)C)N(C#N)CC(=O)N1CCOCC1
